Drawing on patent US6432958B1, “2-piperazinoalkylaminobenzoazole derivatives: dopamine receptor subtype specific ligands” (Neurogen Corporation, priority 1998, dated 2002), this text covers Ki and melting point for 37 compounds.

Structures are written as SMILES. A value given as a limit tells only on which side of the number the result lay.

T1 sequence (P14416 whole entry): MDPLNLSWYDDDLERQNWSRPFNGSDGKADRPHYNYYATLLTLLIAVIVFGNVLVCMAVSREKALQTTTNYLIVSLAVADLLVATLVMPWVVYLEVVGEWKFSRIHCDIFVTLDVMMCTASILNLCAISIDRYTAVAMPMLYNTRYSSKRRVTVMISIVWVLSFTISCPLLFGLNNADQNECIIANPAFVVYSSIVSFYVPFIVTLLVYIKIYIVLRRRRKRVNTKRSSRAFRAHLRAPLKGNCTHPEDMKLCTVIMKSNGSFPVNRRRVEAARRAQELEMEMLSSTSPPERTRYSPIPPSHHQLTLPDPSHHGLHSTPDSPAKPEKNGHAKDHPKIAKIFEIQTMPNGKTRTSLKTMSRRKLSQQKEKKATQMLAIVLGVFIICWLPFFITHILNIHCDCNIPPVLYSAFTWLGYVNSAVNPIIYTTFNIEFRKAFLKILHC

The first data set concerns the target T1, D2 receptors from human (Homo sapiens, UniProt P14416).
T1 construct: expressed in transfected cells; host or cells: COS cells
Kind of data set: D2 receptor binding assay (3H-YM 09151-2 displacement). The settings on record: COS cells containing recombinantly produced human D2 receptors; 0.5 nM 3H-YM 09151-2. Here is the method: (§1) Assays for D2, D3 and D4 Receptor Binding Activity
(§2) Pellets of COS cells containing recombinantly produced D2 or D4 receptors from human are used for the assays. The sample is homogenized in 100 volumes (w/vol) of 0.05 M Tris HCl buffer at 4° C. and pH 7.4. The sample is then centrifuged at 30,000×g and resuspended and rehomogenized. The sample is then centrifuged again at 30,000×g and the final tissue sample is frozen until use. The tissue is resuspended 1:20 (wt/vol) in 0.05 M Tris HCl buffer containing 100 mM NaCl.
(§3) Incubations are carried out a […] and contain 0.4 ml of tissue sample, 0.5 nM ^3H-YM 09151-2 (Nemonapride, cis-5-Chloro-2-methoxy-4-(methylamino)-N-(2-methyl-2-(phenylmethyl)-3-pyrrolidinyl)benzamide) and the compound of interest in a total incubation of 1.0 ml. Nonspecific binding is defined as that binding found in the presence of […] spiperone; without further additions, nonspecific binding is less than 20% of total binding.
As usually defined, the Ki is a dissociation constant, usually derived from enzyme kinetics or from competition with a known ligand. `Br.Cn1c(NCCN2CCN(c3cccc(C(F)(F)F)c3)CC2)nc2ccccc21` [Compound 1, 1-(3-Trifluoromethylphenyl)-4-(2-[1-methylbenzimidazol-2-yl]aminoethyl)piperazine hydrobromide]: the Ki was > 10 µM. As to `COc1ccccc1N1CCN(CCNc2nc3ccc(F)cc3s2)CC1` [Compound 2, 1-(2-Methoxyphenyl)-4-(2-[6-fluorobenzothiazol-2-ylamino]ethyl)piperazine difumarate], the Ki amounted to 0.175 µM. For the compound `Cl.c1ccc(N2CCN(CCNc3nc4ccccc4o3)CC2)nc1` [Compound 3, 1-(Pyridin-2-yl)-4-(2-[benzoxazol-2-yl]aminoethyl)piperazine hydrochloride], the Ki was > 10 µM.

Take `Fc1cnc(N2CCN(CCCCNc3nc4ccccc4s3)CC2)nc1` [Compound 6]: the Ki is 1.64 µM.

The target in the next data set is T2, D4 receptors from human (Homo sapiens, UniProt P21917).
T2 construct: expressed in transfected cells; host or cells: COS cells
T2 sequence (P21917 1-419): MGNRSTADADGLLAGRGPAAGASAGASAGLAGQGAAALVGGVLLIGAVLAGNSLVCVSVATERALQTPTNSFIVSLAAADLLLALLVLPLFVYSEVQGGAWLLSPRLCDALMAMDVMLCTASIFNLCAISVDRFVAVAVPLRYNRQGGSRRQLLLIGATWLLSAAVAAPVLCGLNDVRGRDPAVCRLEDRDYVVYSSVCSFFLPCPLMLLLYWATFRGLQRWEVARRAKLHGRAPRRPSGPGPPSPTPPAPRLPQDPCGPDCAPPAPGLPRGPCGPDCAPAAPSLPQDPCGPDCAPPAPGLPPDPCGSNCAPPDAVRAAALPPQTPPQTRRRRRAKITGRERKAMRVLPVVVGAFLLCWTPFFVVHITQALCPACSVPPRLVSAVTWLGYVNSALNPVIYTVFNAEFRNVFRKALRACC
Description: D4 receptor binding assay (3H-YM 09151-2 displacement). The settings on record: COS cells containing recombinantly produced human D4 receptors; 0.5 nM 3H-YM 09151-2. The procedure:
as §1, §2, §3
As to `Br.Cn1c(NCCN2CCN(c3cccc(C(F)(F)F)c3)CC2)nc2ccccc21` [Compound 1, 1-(3-Trifluoromethylphenyl)-4-(2-[1-methylbenzimidazol-2-yl]aminoethyl)piperazine hydrobromide], the Ki worked out at 0.003 µM. Regarding `COc1ccccc1N1CCN(CCNc2nc3ccc(F)cc3s2)CC1` [Compound 2, 1-(2-Methoxyphenyl)-4-(2-[6-fluorobenzothiazol-2-ylamino]ethyl)piperazine difumarate], the Ki stood at 0.001 µM. With `Cl.c1ccc(N2CCN(CCNc3nc4ccccc4o3)CC2)nc1` [Compound 3, 1-(Pyridin-2-yl)-4-(2-[benzoxazol-2-yl]aminoethyl)piperazine hydrochloride], the Ki worked out at 0.011 µM. As for `Fc1cnc(N2CCN(CCCCNc3nc4ccccc4s3)CC2)nc1` [Compound 6], the Ki amounted to 0.006 µM.

Tested on in another data set: not given
Experiment: not given
Settings: not given
A word on the melting point: it is the temperature of the solid-liquid transition. Consider `Cc1cnc(N2CCN(CCNc3nc4ccccc4s3)CC2)nc1.O=C(O)/C=C/C(=O)O.O=C(O)/C=C/C(=O)O`, for which the melting point lay in the range of 167 to 170 °C.

Compound `O=C(O)/C=C/C(=O)O.O=C(O)/C=C/C(=O)O.c1ccc(N2CCN(CCNc3nc4ccccc4s3)CC2)cc1` showed a melting point of 131 to 132 °C. On to `O=C(O)/C=C/C(=O)O.O=C(O)/C=C/C(=O)O.c1ccc(N2CCN(CCNc3nc4ccccc4s3)CC2)nc1`, for which the melting point is 159 to 160 °C. Consider `Cl.Cl.Clc1ccc(N2CCN(CCNc3nc4ccccc4s3)CC2)cc1`, for which the melting point fell in the range of 230 to 232 °C. The compound `Cl.Cl.Fc1ccc(N2CCN(CCNc3nc4ccccc4s3)CC2)cc1` gave a melting point of 229 to 231 °C. Consider `COc1ccccc1N1CCN(CCNc2nc3ccccc3s2)CC1.O=C(O)/C=C/C(=O)O.O=C(O)/C=C/C(=O)O`, for which the melting point fell in the range of 101 to 103 °C. Regarding `Br.COc1ccccc1N1CCN(CCCNc2nc3ccccc3s2)CC1`, the melting point fell in the range of 195 to 197 °C. For the compound `Br.COc1ccccc1N1CCN(CCNc2nc3c(OC)cccc3s2)CC1`, the melting point is 171 to 173 °C. In the case of `Br.COc1ccccc1N1CCN(CCNc2nc3c(C)cccc3s2)CC1`, the melting point lay in the range of 226 to 227 °C. `Br.COc1ccccc1N1CCN(CCNc2nc3c(Cl)cccc3s2)CC1` gave a melting point of 194 to 195 °C.

In turn, `Br.CCOc1ccc2nc(NCCN3CCN(c4ccccc4OC)CC3)sc2c1` had a melting point of 227 to 228 °C.

`Br.COc1ccccc1N1CCN(CCNc2nc3ccc(S(C)(=O)=O)cc3s2)CC1`: the melting point is 190 to 196 °C. The compound `Fc1ccc2nc(NCCN3CCN(c4ncccn4)CC3)sc2c1.O=C(O)/C=C/C(=O)O.O=C(O)/C=C/C(=O)O` had a melting point of 179 to 180 °C. Still for that read-out and setting: the same measure for `Fc1ccc2nc(NCCN3CCN(Cc4ccccc4)CC3)sc2c1.O=C(O)/C=C/C(=O)O.O=C(O)/C=C/C(=O)O`: 228 to 229 °C; for `Br.Fc1ccc2nc(NCCN3CCN(Cc4ccc(Cl)cc4)CC3)sc2c1`: 238 to 240 °C; for `Br.CCOc1ccccc1N1CCN(CCNc2nc3ccc(F)cc3s2)CC1`: 235 to 237 °C. Compound `Br.Fc1cnc(N2CCN(CCNc3nc4ccc(F)cc4s3)CC2)nc1` came in with a melting point of 279 to 281 °C. As to `Br.Cc1cnc(N2CCN(CCNc3nc4ccc(F)cc4s3)CC2)nc1`, the melting point is 240 to 250 °C. Still for that read-out and setting: the result for `Br.Fc1ccc2nc(NCCN3CCN(c4ccccn4)CC3)sc2c1` reads 259 to 260 °C. In turn, `Br.Fc1ccc2nc(NCCN3CCN(c4cccc(C(F)(F)F)c4)CC3)sc2c1` had a melting point of 259 to 261 °C. Compound `Br.Fc1ccc2nc(NCCN3CCN(c4ccccc4)CC3)sc2c1` came in with a melting point of 268 to 270 °C. As for `Br.Fc1ccc(N2CCN(CCNc3nc4ccc(F)cc4s3)CC2)cc1`, the melting point lay within 270 to 271 °C.

`Br.CC(C)Oc1ccccc1N1CCN(CCNc2nc3ccc(F)cc3s2)CC1` had a melting point of 216 to 217 °C. Same read-out and setting: the same measure for `Cl.c1cnc(N2CCN(CCNc3nc4ccccc4o3)CC2)nc1`: 197 to 202 °C. In the case of `Br.COc1ccccc1N1CCN(CCNc2nc3ccccc3[nH]2)CC1`, the melting point fell in the range of 215 to 216 °C. In turn, `Br.c1ccc(N2CCN(CCNc3nc4ccccc4[nH]3)CC2)cc1` yielded a melting point of 241 to 247 °C. For `Br.c1ccc(N2CCN(CCNc3nc4ccccc4[nH]3)CC2)nc1`, the melting point fell in the range of 290 to 291 °C. For the compound `Br.COc1ccccc1N1CCN(CCNc2nc3ccccc3n2C)CC1`, the melting point is 273 to 274 °C. `Br.CC(C)Oc1ccccc1N1CCN(CCNc2nc3ccccc3n2C)CC1`: the melting point was 285 °C (dec.).

`Br.CCn1c(NCCN2CCN(c3ccccc3OC)CC2)nc2ccccc21` gave a melting point of 109 to 110 °C. As to `Br.CCn1c(NCCN2CCN(c3ccccc3)CC2)nc2ccccc21`, the melting point is 270 °C (dec.). For `O=C(O)/C=C/C(=O)O.O=C(O)/C=C/C(=O)O.c1cnc(N2CCN(CCNc3nc4ccccc4s3)CC2)nc1`, the melting point is 161 to 163 °C. Still for that read-out and setting: the result for `Fc1cnc(N2CCN(CCNc3nc4ccccc4s3)CC2)nc1.O=C(O)/C=C/C(=O)O.O=C(O)/C=C/C(=O)O` reads 174 to 175 °C; that for `Br.Cn1c(NCCN2CCN(c3cccc(C(F)(F)F)c3)CC2)nc2ccccc21` [Compound 1, 1-(3-Trifluoromethylphenyl)-4-(2-[1-methylbenzimidazol-2-yl]aminoethyl)piperazine hydrobromide], 283 °C (dec.). Regarding `Cl.c1ccc(N2CCN(CCNc3nc4ccccc4o3)CC2)nc1` [Compound 3, 1-(Pyridin-2-yl)-4-(2-[benzoxazol-2-yl]aminoethyl)piperazine hydrochloride], the melting point was 255 to 265 °C.
